In patent US8410284B2, “Cyclic benzimidazole derivatives useful as anti-diabetic agents” (Merck Sharp & Dohme Corp, priority 2008, dated 2013):
Structures can show the parent of a compound that is named as a salt.

Assays:
ob/ob and db/db mice = details: following 8 weeks of administration; cited from earlier work
[1] = target: recombinant human AMPK complex 1 (containing α1β1γ1) (Homo sapiens, UniProt Q13131+Q9Y478); assay: In vitro AMPK activation assay (AMPKSAMSF); type: biochemical; details: recombinant human AMPK complex 1 (α1β1γ1); for Emax: read-out: maximum AMP activation
Procedure: AMPKSAMSF (In Vitro AMPK Activation Assay)
The recombinant human AMPK complex 1 (containing α1β1γ1) was obtained from baculovirus expression system. Recombinant viruses were generated by cotransfection of AMPK/pBacPak9 clones with Baculogold baculovirus DNA (Pharmingen) in spodoptera frugiperda 21 cells according to the manufacturer's instructions. Each round of virus amplification was performed for 5 days in Grace's medium containing 10% serum. Virus that had been subjected to three rounds of amplification was used for all protein production procedures. To express the AMPK complex, sf21 cells were adapted to serum free medium (SF900 II, Invitrogen) by sequential dilution from serum containing stocks into SF900 II medium and maintained in shaker flasks at 90 rpm at 27° C. The recombinant AMPK enzyme complex was produced by triple infection, one recombinant virus for each of the subunits, in sf21 cells under serum free conditions. Cells were infected in log phase, 1×10^6 cells/ml, at a multiplicity of infection of ˜5. Cells were harvested by centrifugation at 10,000×g for 15 minutes after 72 hours of infection with viruses. The insect cell pellet from 2 liters of culture was resuspended in 50 ml lysis buffer (20 mM Tris-HCl, 50 mM NaCl, 50 mM NaF, 30 mM Na PPi, 0.25 M sucrose, 10 mM ZnCl2, 2 mM DTT, 0.4 mg/ml digitonin) and subjected to two cycles of freeze-thaw lysis in a dry-ice ethanol bath. Insoluble material was removed by centrifugation at 10,000×g and the supernatant was fractionated with use of polyethylene glycol (PEG). The protein fraction precipitating between 2.5 and 6% PEG was used for further purification using a Blue-Sepharose step (Zhou et al, J. Clin. Invest. 108, 1167-1174, 2001).
The total in vitro AMPK activation assay volume is 50 μl in a 96-well plate. The reaction mixture contained 100 μM ATP (0.5 μCi ^33P-ATP per reaction), and 50 μM SAMS (HMRSAMSGLHLVKRR) in a buffer (20 mM HEPES, pH 7.0, 5 mM MgCl2, 0.01% Brij35). The reaction was initiated with addition of the enzyme. After 30-minute incubation at 30° C., the reaction was stopped by addition of 80 μl 1% H3PO4. Aliquots (100 μl) were transferred to 96-well MultiScreen plates (MAPHNOB50; Millipore Corp., Bedford, Mass., USA). The plate was washed three times with 1% H3PO4 followed by detection in a Top-count. The counts per minute from the basal activity (the reaction without activator) was subtracted from each well and the data were expressed as % maximum AMP activation followed by EC50 calculation.

Sequence of recombinant human AMPK complex 1 (containing α1β1γ1) (Q13131 whole entry): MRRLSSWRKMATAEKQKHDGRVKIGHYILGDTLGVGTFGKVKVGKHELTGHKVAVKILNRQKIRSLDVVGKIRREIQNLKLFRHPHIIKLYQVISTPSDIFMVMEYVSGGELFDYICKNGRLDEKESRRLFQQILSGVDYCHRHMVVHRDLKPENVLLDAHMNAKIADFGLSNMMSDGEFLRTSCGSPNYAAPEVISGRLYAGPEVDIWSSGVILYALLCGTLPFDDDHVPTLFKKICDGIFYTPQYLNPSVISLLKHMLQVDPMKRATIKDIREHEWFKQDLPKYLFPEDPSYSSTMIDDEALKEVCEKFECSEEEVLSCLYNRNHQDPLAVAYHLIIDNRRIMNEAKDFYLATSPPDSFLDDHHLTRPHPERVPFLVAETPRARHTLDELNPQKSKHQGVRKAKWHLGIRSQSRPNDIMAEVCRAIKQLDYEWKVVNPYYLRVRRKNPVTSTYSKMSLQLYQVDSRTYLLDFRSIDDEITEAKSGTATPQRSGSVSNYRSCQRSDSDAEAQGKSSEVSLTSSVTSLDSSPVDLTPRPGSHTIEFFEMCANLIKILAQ
Sequence of recombinant human AMPK complex 1 (containing α1β1γ1) (Q9Y478 whole entry): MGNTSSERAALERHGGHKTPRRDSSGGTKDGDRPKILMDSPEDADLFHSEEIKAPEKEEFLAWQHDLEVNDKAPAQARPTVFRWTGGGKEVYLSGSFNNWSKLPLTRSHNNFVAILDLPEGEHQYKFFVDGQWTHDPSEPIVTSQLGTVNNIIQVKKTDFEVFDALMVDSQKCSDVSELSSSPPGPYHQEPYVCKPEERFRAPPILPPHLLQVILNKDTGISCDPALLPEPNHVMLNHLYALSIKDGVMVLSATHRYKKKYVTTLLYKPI
Sequence of recombinant human AMPK complex 1 (containing α1β1γ1) (P54619 whole entry partner): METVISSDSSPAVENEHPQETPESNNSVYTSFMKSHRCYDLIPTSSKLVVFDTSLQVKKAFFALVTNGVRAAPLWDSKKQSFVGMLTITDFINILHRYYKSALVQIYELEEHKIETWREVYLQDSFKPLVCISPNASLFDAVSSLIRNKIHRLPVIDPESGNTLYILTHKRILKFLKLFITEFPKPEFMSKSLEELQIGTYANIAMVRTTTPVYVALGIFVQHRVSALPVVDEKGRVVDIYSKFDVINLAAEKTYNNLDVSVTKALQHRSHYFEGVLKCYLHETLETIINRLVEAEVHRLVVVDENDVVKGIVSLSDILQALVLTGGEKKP

| melting point [°C] | Structure (SMILES) | Emax [1] [%] | further results |
| --- | --- | --- | --- |
| 225 to 228 | Cc1ccc(Oc2nc3cc(-c4ccc(-c5ccccc5)cc4)c(Cl)cc3[nH]2)cc1P(=O)(O)O (as salt: salt) [Example 1, ((5-(4-Biphenyl)-6-chloro-1H-benzimidazol-2-yl)oxo)-4-methylphen-3-ylphosphonic acid] | – | – |
| – | NC(=O)c1ncn([C@@H]2O[C@H](CO)[C@@H](O)[C@H]2O)c1N [AICAR] | – | blood glucose reduction (ob/ob and db/db mice): 35% |
| 199 to 205 | O=P(O)(O)c1cccc(Oc2nc3cc(-c4ccc(-c5ccccc5)cc4)c(Cl)cc3[nH]2)c1 [Example 2, ((5-(4-Biphenyl)-6-chloro-1H-benzimidazol-2-yl)oxo)phen-3-ylphosphonic acid] | > 80 | EC50 [1]: 2.5 nM; % Maximum AMP Activation of human AMPK Complex 1 ([1]; basal activity subtracted): 205% |
| > 220 | Cc1ccc(Cc2nc3cc(-c4ccc(-c5ccccc5)cc4)c(Cl)cc3[nH]2)cc1P(=O)(O)O [Example 11, {5-[(5-biphenyl-4-yl-6-chloro-1H-benzimidazol-2-yl)methyl]-2-methylphenyl}phosphonic acid] | > 80 | – |
| – | O=[P@@]1(c2cccc(Oc3nc4cc(-c5ccc(-c6ccccc6)cc5)c(Cl)cc4[nH]3)c2)OCC[C@@H](c2ccncc2)O1 [Example 25, Trans-5-Biphenyl-4-yl-6-chloro-2-trans-[3-((S)-2-oxo-4-pyridin-4-yl-2lambda*5*-[1,3,2]dioxophosphinan-2-yl)-phenoxy]-1H-benzoimidazole] | > 80 | – |
| – | O=P1(c2cccc(Oc3nc4cc(-c5ccc(-c6ccccc6)cc5)c(Cl)cc4[nH]3)c2)OCCC(c2ccncc2)O1 [Example 26, Cis-5-Biphenyl-4-yl-6-chloro-2-[3-((S)-2-oxo-4-pyridin-4-yl-2lambda*5*-[1,3,2]dioxophosphinan-2-yl)-phenoxy]-1H-benzoimidazole] | > 80 | – |
| – | CCOC(=O)CNP(=O)(NCC(=O)OCC)c1cc(Oc2nc3cc(-c4ccc5c(ccn5C)c4)c(Cl)cc3[nH]2)ccc1C [Example 27, {[6-Chloro-5-(1-methyl-1H-indol-5-yl)-1-H-benzimidazol-2-yl]oxo}-4-methylphen-3-ylphosphono-bis-2-amino-ethanoic acid ethyl ester] | > 80 | – |
| – | CCOC(=O)CNP(=O)(NCC(=O)OCC)c1cc(Oc2nc3cc(-c4ccc(C5CCCCC5)cc4)c(Cl)cc3[nH]2)ccc1C [Example 28, {[6-Chloro-5-(4-cyclohexylphenyl)-1H-benzoimidazol-2-yl]oxo}-4-methylphen-3-ylphosphono-bis-2-amino-ethanoic acid ethyl ester] | > 80 | – |
